Legend:
Format in all cases: physicochemical
[1] = Stability study of salt (5 days and 10 days, HPLC related substances)
Protocol: 2.1.3 Stability Study of Salt
Hydrochloride and p-toluenesulfonate of N-(trans-3-(2-(4-(2,3-dichlorophenyl)piperazin-1-yl)ethyl)cyclobutyl)oxazole-2-carboxamide were weighed about 1 mg, respectively, and then placed under light (5000 lux), high temperature (60° C.), high humidity (92.50 RH), high temperature and high humidity (50° C. and 75% RH) for 5 days and 10 days, then a diluent DMSO was added to prepare a solution with salt concentration of about 1 mg/mL.
The chromatographic peak area normalization method was used to calculate the changes of related substances.

[2] = Crystal form stability study of hydrochloride for 30 days
Protocol: 9. Crystal Form Stability Study of Hydrochloride for 30 Days
The 30 days stability of hydrochloride of N-(trans-3-(2-(4-(2,3-dichlorophenyl)piperazin-1-yl)ethyl)cyclobutyl)oxazole-2-carboxamide under four conditions of 60° C. (closed), 40° C. & RH 75% (open), 25° C./RH 92.5% (open) and light (5000±500 Lux) was detected, which provided scientific basis for the production, packaging, storage and transportation conditions of drugs.
The diluent 80% methanol solution was added to prepare a solution containing about 0.5 mg/mL hydrochloride. The mixture was sonicated for 30 min to produce a clear solution. 1 mL of the solution was filtered and measured by HPLC. See “2.3.4” for the HPLC analysis method. The content of related substances was calculated according to the peak area normalization method, and the results are shown in Table 32 below.

[3] = Solubility of hydrochloride in different media; conditions: 37° C.
Protocol: 2.1.5 Solubility of Hydrochloride in Different Media
1.0 mg of compound was weighed into a 2 mL glass bottle, then 1 mL of dissolving medium was added respectively. The glass bottle was shaken overnight on an electrothermal constant temperature shaking tank, and the temperature was set to 37° C. After 24 hours, the sample solution was filtered with a […] mixed water fiber filter membrane, and the subsequent filtrate was taken to test its content by HPLC. HPLC detection methods are described in “Stability Study Conditions”.

[4] = Hygroscopicity study of salt (DVS)
From the text: 2.1.4 Hygroscopicity Study of Salt
The hygroscopicity of a drug refers to the characteristics of the drug's ability or degree of water absorption at a certain temperature and humidity. […] (DVS) was used to characterize the ability of drugs to absorb water under different humidity conditions. The instrument parameters are detailed in the table below.

[5] = GWGS-5 d (high temperature and high humidity)
[6] = GWGS-10 d (high temperature and high humidity)
[7] = high temperature, light, high humidity, high temperature and high humidity, 5 and 10 days
[8] = WS-30 d (high temperature and high humidity)

Structure (SMILES): Cl.O=C(N[C@H]1C[C@H](CCN2CCN(c3cccc(Cl)c3Cl)CC2)C1)c1ncco1 [N-(trans-3-(2-(4-(2,3-dichlorophenyl)piperazin-1-yl)ethyl)cyclobutyl)oxazole-2-carboxamide hydrochloride]
- RRT 1.000 Area % ([1]; 0 d): 99.619%
- RRT 1.050 Area % ([1]; 0 d): 0.153%
- RRT 1.200 Area % ([1]; 0 d): 0.163%
- RRT 1.550 Area % ([1]; 0 d): 0.065%
- total Area % (related substances) ([1]; 0 d): 0.381%
- RRT 0.220 Area % ([1]; GS-5 d (high humidity)): 0.055%
- RRT 1.000 Area % ([1]; GS-5 d (high humidity)): 99.556%
- RRT 1.050 Area % ([1]; GS-5 d (high humidity)): 0.160%
- RRT 1.200 Area % ([1]; GS-5 d (high humidity)): 0.161%
- RRT 1.550 Area % ([1]; GS-5 d (high humidity)): 0.069%
- total Area % (related substances) ([1]; GS-5 d (high humidity)): 0.444%
- RRT 1.000 Area % ([1]; GS-10 d (high humidity)): 99.619%
- RRT 1.050 Area % ([1]; GS-10 d (high humidity)): 0.153%
- RRT 1.200 Area % ([1]; GS-10 d (high humidity)): 0.163%
- RRT 1.550 Area % ([1]; GS-10 d (high humidity)): 0.065%
- total Area % (related substances) ([1]; GS-10 d (high humidity)): 0.381%
- RRT 1.000 Area % ([1]; GW-5 d (high temperature)): 99.604%
- RRT 1.050 Area % ([1]; GW-5 d (high temperature)): 0.164%
- RRT 1.200 Area % ([1]; GW-5 d (high temperature)): 0.163%
- RRT 1.550 Area % ([1]; GW-5 d (high temperature)): 0.068%
- total Area % (related substances) ([1]; GW-5 d (high temperature)): 0.396%
- RRT 1.000 Area % ([1]; GW-10 d (high temperature)): 99.590%
- RRT 1.050 Area % ([1]; GW-10 d (high temperature)): 0.170%
- RRT 1.200 Area % ([1]; GW-10 d (high temperature)): 0.163%
- RRT 1.550 Area % ([1]; GW-10 d (high temperature)): 0.077%
- total Area % (related substances) ([1]; GW-10 d (high temperature)): 0.410%
- RRT 1.000 Area % [1, 5]: 99.603%
- RRT 1.050 Area % [1, 5]: 0.144%
- RRT 1.200 Area % [1, 5]: 0.165%
- RRT 1.550 Area % [1, 5]: 0.088%
- total Area % (related substances) [1, 5]: 0.397%
- RRT 1.000 Area % [1, 6]: 99.614%
- RRT 1.050 Area % [1, 6]: 0.157%
- RRT 1.200 Area % [1, 6]: 0.161%
- RRT 1.550 Area % [1, 6]: 0.067%
- total Area % (related substances) [1, 6]: 0.386%
- RRT 1.000 Area % ([1]; GZ-5 d (light)): 99.617%
- RRT 1.050 Area % ([1]; GZ-5 d (light)): 0.148%
- RRT 1.200 Area % ([1]; GZ-5 d (light)): 0.160%
- RRT 1.550 Area % ([1]; GZ-5 d (light)): 0.075%
- total Area % (related substances) ([1]; GZ-5 d (light)): 0.383%
- RRT 1.000 Area % ([1]; GZ-10 d (light)): 99.604%
- RRT 1.050 Area % ([1]; GZ-10 d (light)): 0.162%
- RRT 1.200 Area % ([1]; GZ-10 d (light)): 0.158%
- RRT 1.550 Area % ([1]; GZ-10 d (light)): 0.077%
- total Area % (related substances) ([1]; GZ-10 d (light)): 0.396%
- growth of impurities [1, 7]: no significant growth of impurities
- stability of salt [1, 7]: good stability
- RRT 1.00 Area % ([2]; 0 d): 99.44%
- RRT 1.07 Area % ([2]; 0 d): 0.07%
- RRT 1.93 Area % ([2]; 0 d): 0.42%
- RRT 2.43 Area % ([2]; 0 d): 0.07%
- RRT 1.00 Area % ([2]; GS-30 d (high humidity)): 99.43%
- RRT 1.07 Area % ([2]; GS-30 d (high humidity)): 0.11%
- RRT 1.93 Area % ([2]; GS-30 d (high humidity)): 0.39%
- RRT 2.43 Area % ([2]; GS-30 d (high humidity)): 0.07%
- RRT 1.00 Area % ([2]; GW-30 d (high temperature)): 99.51%
- RRT 1.07 Area % ([2]; GW-30 d (high temperature)): 0.08%
- RRT 1.93 Area % ([2]; GW-30 d (high temperature)): 0.41%
- RRT 1.00 Area % ([2]; GZ-30 d (light)): 99.43%
- RRT 1.07 Area % ([2]; GZ-30 d (light)): 0.09%
- RRT 1.93 Area % ([2]; GZ-30 d (light)): 0.41%
- RRT 2.43 Area % ([2]; GZ-30 d (light)): 0.08%
- RRT 1.00 Area % [2, 8]: 99.46%
- RRT 1.07 Area % [2, 8]: 0.09%
- RRT 1.93 Area % [2, 8]: 0.38%
- RRT 2.43 Area % [2, 8]: 0.07%
- solubility in different pH buffers (dependence) ([3]; 24 hours): pH-dependent
- solubility ([3]; acidic conditions): better solubility
- solubility ([3]; neutral or alkaline conditions): poor solubility
- solubility in water compared with free base ([3]; water): greatly improved
- hygroscopicity (DVS) [4]: slightly hygroscopic

Source: patent US20240254109A1, “SALT CONTAINING PIPERAZINE POLYCYCLIC DERIVATIVE, CRYSTAL FORM THEREOF, PREPARATION METHOD THEREFOR, AND USE THEREOF” (Shanghai Hansoh Biomedical Co., Ltd., priority 2021, published 2024)
